The target in one assay is T1, mPAO (Mus musculus, UniProt Q8C0L6).
T1 construct: the full length cDNA of mpao was released by Nde I and Hind III treatment, and ligated into Nde I and Hind III sites of pET29c; made in house; host or cells: E. coli BL21 GOLD (DE3), plasmid pET-MPAO (pET29c)
Nature of the assay: Steady-state kinetic spectrophotometric assay of mPAO (H2O2 formation). The format is biochemical, murine. The procedure:
In this example the methods used to examine mPAO steady state kinetics are described. Spectrophotometric assays were done at 30° C. in a potassium phosphate buffer (e.g., 50 mM KH2PO4/KOH buffer, pH 7.6 saturated in air or in pure oxygen), using a published procedure which provides a continuous monitor of the H2O2 produced (Holt et al., Anal. Biochem. 244:384-392 [1997]). These assays were done in 1 mL cuvette with 0.8 mL of solution containing varying amounts of substrate, 1 mM vanillic acid, 0.5 mM 4-aminopyrine, 4 units of horseradish peroxidase, and 0.1-0.2 μg of mPAO. The reactions were monitored at 498 nm with a UVIKON 840 spectrophotometer (KONTRON Instruments) for the formation of the quinoneimine dye (ε498=4,650 M^−1cm^−1 at pH 7.6), the condensation product of vanillic acid and oxidized 4-aminopyrine. The latter is produced from 4-aminopyrine by the action of horseradish peroxidase that has been oxidized by H2O2 (Holt et al., supra [1997]). The assays were done at 25° C. by varying the concentration of the amine substrate, while the oxygen concentration in the assay solution was constant at the air-saturating level of 237 μM. The data were fit, by nonlinear regression to steady-state kinetic equations (McIntire et al., Biochem. J. 228:325-335 [1985]), which provided the values, and standard deviations thereof, for kcat′, KS′ and kcat′/KS′ (=Q, the specificity constant). [formula]
The dissociation constants, KD, for these and other amines were estimated in the following manner. It was assumed that the competition was competitive, since in the presence of the inhibitors, at a saturating N^1-acetyl-Spm concentration, the rate of the reaction was equal to the value of the true kcat. It was also assumed that the mechanism is of the ping-pong type. Thus, the applicable steady-state equation is (Segal, Enzyme Kinetics, John Wiley & Sons, New York, pp. 606-625 [1975]): [formula]
On the left, kcat and KS are the steady-state parameters for N^1-acetyl-Spm (S), and I and KI (=KD), represent the inhibitor and its inhibition constant, respectively. KIO and KO are the inhibition constant and Michaelis constant for O2, respectively. The equation can be converted to the expression on the right side when: [formula]
The expressions for kcat′ and KS′ (at the fixed [O2]=[…]) are the same as those when the inhibitor is absent. Since the values of kcat′ and KS″ were predetermined, inhibition assays were carried out where [S]≈KS″, which, in the absence of I, would give a rate, ν≈0.5×kcat″. In these assay, for each inhibitor, [I] was adjusted so the apparent rate was somewhat less then 0.5 kcat′. In this situation, after substitution and rearrangement, Equation 1 reduces to: [formula]
Since [I] and kcat′ are known, and ν is the measured rate in the presence of the inhibitor, the value of KI′ can be estimated. It is assumed that these apparent KI′ are good approximations of the true KI (=KD) values. […] The estimated KI′ values provided in Table 1, are the averages of these four values. If the reactions of the polyamine substrates and O2 with mPAO obeys a ping-pong type mechanism, the apparent values, kcat′/KS′, are equal to the true kcat/KS values.

Assay [1] concerns HL-60 human promyelogenous leukemia cells. The text has this:
(§1) In this Example, the method used to examine hpao mRNA production by cultured cells undergoing apoptosis is described.

Assay [2] concerns OVCAR-3 human ovarian carcinoma cells. As to conditions: approximately 50 μM, within 20 hrs.
Text: as §1

The next assay deals with hpao mRNA. The procedure:
In addition, a reverse-transcriptase-PCR (RT-PCR) experiment was performed to analyze the expression of hpao in OVCAR-3 and HL-60 cells. Briefly, about 10^6 to 10^7 cells were harvested and the total RNA of each sample was isolated by using the RNeasy miniprep kit (QIAGEN). A 1 μg mRNA sample was used for cDNA synthesis with the MMLV reverse transcriptase following the manufacturer's instructions provided with the Advantage RT-for-PCR Kit (Clontech). Human liver and placenta polyA mRNA were also obtained from Clontech. cDNA amplification was achieved following the SMART RACE™ cDNA Amplification method (Clontech). A pair of gene specific primers was generated based on the hpao cDNA sequence; hpao1 was the sense primer 5′-[…] ACCTTTC-3′ (SEQ ID NO:17), and hpao2R was the antisense primer 5′-[…] AGT-3′ (SEQ ID NO:18). Positive control amplimers for human G3PDH (glyceraldehyde-3-phosphate-dehydrogenase) were also used; the sense primer was 5′-[…] G-3′ (SEQ ID NO:19) and the antisense primer was 5′-[…] CT-3′ (SEQ ID NO:20). PCR was performed at 94° C. for 3 min, 25 cycles at 94° C. for 10 sec, 68° C. for 1 min, and 72° C. for 1 min.
as §1

Each structure is given as a SMILES string. Where two headings read alike, the source gives them in different places.

T1 sequence (Q8C0L6 whole entry E184K/L285S/R416L/R417S/Q419R/E451A/V490I/S491G/V497A): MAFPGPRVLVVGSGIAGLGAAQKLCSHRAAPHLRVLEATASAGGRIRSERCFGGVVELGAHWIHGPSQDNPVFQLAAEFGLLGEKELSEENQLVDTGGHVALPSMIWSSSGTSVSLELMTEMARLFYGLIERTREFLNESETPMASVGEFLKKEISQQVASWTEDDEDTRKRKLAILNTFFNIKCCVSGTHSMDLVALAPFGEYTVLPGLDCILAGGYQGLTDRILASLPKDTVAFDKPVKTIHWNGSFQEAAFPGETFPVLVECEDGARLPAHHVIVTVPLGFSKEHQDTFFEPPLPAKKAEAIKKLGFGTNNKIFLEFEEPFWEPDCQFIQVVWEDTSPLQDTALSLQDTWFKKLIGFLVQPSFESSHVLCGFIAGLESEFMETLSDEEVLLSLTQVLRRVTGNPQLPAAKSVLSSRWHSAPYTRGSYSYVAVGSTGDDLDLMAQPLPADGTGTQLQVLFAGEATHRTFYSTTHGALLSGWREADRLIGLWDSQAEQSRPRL

Take `CC(=O)NCCCNCCCCNCCCN` [N^1-acetyl-Spm, N^1-acetyl-spermine]: on mPAO (apparent value, air-saturated 50 mM KH2PO4/KOH buffer pH 7.6, [O2] 237 μM), the “kcat′” value came out at 4.53 ± 0.05 s⁻¹. Moreover, on mPAO (apparent value, air-saturated buffer pH 7.6, [O2] 237 μM), the “KS′” value came to 1.78 ± 0.1 µM. Further, on mPAO (in words), the “substrate for mPAO (oxidation by mPAO)” value was “good mPAO substrates”. For the same compound, the “kcat′/KS′” value at mPAO (specificity constant, air-saturated buffer pH 7.6) was “(2.54 ± 0.01) × 10^6 M^−1sec^−1”. The HL-60 cell survival result in assay [1] (24 hrs, all tested concentrations) was “survived for 24 hrs”. In assay [1] (72 hrs exposure, 0.05 mM), the HL-60 cells survived is 100%. In addition, the HL-60 cells killed in assay [1] (72 hrs exposure, 0.1 mM) came to 30%; in assay [1] (72 hrs exposure, 0.2 mM), 50%; in assay [1] (72 hrs exposure, 0.5 mM), 80%. The compound also showed an OVCAR-3 cells killed in assay [2] of 100%. Also, the “hpao mRNA level” value in the assay on hpao mRNA (HL-60 cells, 48 hr exposure to high concentrations) is on record as “no change”; in the assay on hpao mRNA (OVCAR-3 cells, very quickly after exposure) it was “significant levels of hpao mRNA were induced”.

For the origin of these results see patent US20050143472A1, “Novel treatment for pathologies associated with oxidative damage” (priority 2002, published 2005).
